Tests used:
[1] = tested on: spinal motor neurons; assay: Neuroprotection assay: THA neurotoxicity in spinal cord slice cultures; assay type: cell-based, Sprague-Dawley rat; conditions: THA 200 μM + compound 10 μM, primary cultures of spinal motor neurons
Description: For each of FIGS. 1-7, the bar graphs represent the number of viable neurons after a specified treatment regimen employed in a neuroprotective activity assay. The cells of the experiments were treated with a control solution, a neurotoxic solution, and neurotoxic+experimental compound solution. The statistical significance, p, is calculated using the standard 2 tailed Student's t test.
Each experiment consisted of two 6-well plates with 5 slices from 4 different animals per well. Media changes were performed every 3 to 4 days. […] The control was an untreated sample with 0.1% DMSO as vehicle. The THA control was a THA treated sample with 0.1% DSMO as vehicle. Two wells were used per condition. One media change with new THA and compounds was performed. […]
Quantification of surviving neurons was performed on a Ziess Axiovert microscope. Neuronal survival was determined by observing an intact neuronal cell body with processes located ventrally of the central canal in each hemisphere. […] Each hemisphere was counted individually. The statistics were performed with StatView software on a minimum of three different experiments per condition and significance was determined as compared to THA control. The percent of protection was determined from the average number of living neurons by the following equation: (drug treatment condition−THA control)/(Untreated control−THA control).

[2] = tested on: dorsal root ganglion (DRG) cells; assay: Neurite outgrowth in dorsal root ganglion (DRG) explant cultures; assay type: cell-based, mouse; conditions: for neuronal cell growth/neurite extension (images): compared to control, 48 hrs; for neurotrophic or neuroprotectant activity: assay not specified
Description: FIG. 7: Primary DRG cultures were used to test for neurotrophic, neurite outgrowth promoting, and neuroregenerative activity. Each of the compounds was incubated with cells at a concentration of 1 μM for 48 hours, as detailed in the examples.
Spinal cord and dorsal root ganglion (DRG) cells from adult mice can be isolated by micro-dissection. The spinal cord with attached DRGs from an adult mouse ([…]) is removed. Spinal nerves are cut away using micro-dissection scissors and any excess material is trimmed until the DRG is free. Using sharp micro-dissecting scissors, a transverse cut is made in the peripheral nerve, leaving 1-2 mm attached, and the explant placed into Petri dish and covered with plating media. When finished collecting all DRGs, the spinal nerve is trimmed to about […] in length. Then embed the explant in 30 μL of reduced growth factor Matrigel on a circular coverslip, and place in a […] culture dish. Cover the sensory ganglion explant with 2 mls of media. Compounds, drugs or control solutions are added from 10× stocks, and incubated at 37° C., 5% CO2, 95% humidity for 48 hrs. Wash cultures twice with PBS, and fix with 10% formalin for 30 minutes. Wash the fixed cultures twice with PBS and store refrigerated in PBS.
Place cultures in Block Buffer (5% Horse Serum, 5% Goat Serum, 1% Triton X, PBS pH=7.4) overnight, while rotating, at a temperature of 4° C. Add primary antibody (Beta tubulin, Sigma Chemical Co.) diluted in Block Buffer and incubate overnight at 4° C. Wash 5 times with PBS and apply secondary antibody (Alexa 488 Goat Anti-Mouse) diluted in block buffer. Incubate overnight at 4° C. Wash 5 times with PBS and leave overnight at 4 degrees. Coverslip the cultures and measure total neurite length from the end of the attached spinal nerve. Lengths of all neurites are quantitated and compared to those present in vehicle-treated control DRGs.

[3] = target: CyP A (Homo sapiens, UniProt P62937)
Description: A number of substrates for rotamase are known in the art or can be derived from those known. Typically, the substrate contacts a sample containing a protein with rotamase activity and the conversion of the substrate is detected after a period of time. The method for detecting conversion of the substrate will vary with the particular substrate chosen.
The absorbance at 390 nm versus time is monitored for 90 seconds using a spectrophotometer and the rate constants are determined from the absorbance versus time data files.
While CyP A is used in these examples, other CyP proteins can be substituted.

Chain of CyP A (P62937 whole entry): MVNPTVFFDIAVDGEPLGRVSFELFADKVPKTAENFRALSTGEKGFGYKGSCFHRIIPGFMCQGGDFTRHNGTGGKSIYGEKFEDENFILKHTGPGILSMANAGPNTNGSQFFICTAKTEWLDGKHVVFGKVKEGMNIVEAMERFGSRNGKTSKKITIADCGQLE

Molecule | neuroprotective activity (number of viable neurons) [1] | neuronal cell growth/neurite extension (images) [2] | neurotrophic or neuroprotectant activity [2] | also measured
O=C(Nc1ccc(I)cc1)Nc1cc(NC(=O)Nc2ccc(I)cc2)c(Br)cc1Br [Compound 3] | displays neuroprotective activity | increase in neuronal cell growth/neurite extension | – | –
CSc1ccc(Cl)cc1C(=O)Nc1cccc(NC(=O)c2cc(Cl)ccc2SC)c1 [Compound 6] | – | increase in neuronal cell growth/neurite extension | possess neurotrophic or neuroprotectant activity | –
O=C(Nc1ccccc1)Nc1cc(NC(=O)Nc2ccccc2)cc(C(F)(F)F)c1 [Compound 7] | – | increase in neuronal cell growth/neurite extension | possess neurotrophic or neuroprotectant activity | –
O=C(NCc1cccc2ccccc12)c1cccc(NC(=O)c2cc(Cl)cc(Cl)c2)c1 [Compound 16, {3-[(3,5-dichlorophenyl)carbonylamino]phenyl}-N-(naphthylmethyl) formamide] | – | – | – | melting point: 205 to 208 °C
N#Cc1cccc(NC(=O)NCc2cccc(CNC(=O)Nc3cccc(C#N)c3)c2)c1 [Compound 32] | – | – | – | % Inhibition at 10 μM [3]: None detected
cyclosporin A [reference compound] | maintains neuronal viability | – | – | –
